Our source for the Bioactivity values is US20210022305A1, “A HUMULUS PLANT VARIANT AND EXTRACTS THEREOF” (BOMI LLC, priority 2018, published 2021).

Where “and” joins values, the source holds several entries; their conditions need not be identical. Equal entries are not always repeated.

In the test the test system is CB2. In words: CBD bioactivity test (monoclonal antibody test based on CB2 affinity). Conditions: CBD samples isolated from ImmunAG. Type of test: binding.

Description: All chemicals and solutions were obtained from Sigma-Aldrich (St. Louis, Mo.). All cell cultures were obtained from Creative Bioarray, Shirley, N.Y. CBD bioactivity was measured using practices described in Cushing et al., “Measuring the Bioactivity of Phytocannabinoid Cannabidiol from Cannabis Sources, and a Novel Non-Cannabis Source,” Journal of Medical Phyto.
CBD Samples and Bioactivity Testing. […] Following isolation, bioactivity was measured using procedures outlined in Cushing et al., “Measuring the Bioactivity of Phytocannabinoid Cannabidiol from Cannabis Sources, and a Novel Non-Cannabis Source,” Journal of Medical Phyto.
The bioactivity testing procedure used in this experiment, as described in Cushing et al., “Measuring the Bioactivity of Phytocannabinoid Cannabidiol from Cannabis Sources, and a Novel Non-Cannabis Source,” Journal of Medical Phyto. Research 10 (2018), which is hereby incorporated by reference in its entirety, consisted of a monoclonal antibody test whose validity was based on the CB2 affinity of CBD samples.

With `C=C(C)C1CCC(C)=CC1c1c(O)cc(CCCCC)cc1O` (stereo not drawn) [CBD, 2-(6-isopropenyl-3-methyl-2-cyclohexen-l-yl)-5-pentyl-1,3-benzenediol], the Bioactivity is 0.80 and 0.90 and 0.95.
